Measured values published in US7658706B2, “Vascular graft sterilization and decellularization” (RTI Biologics, Inc., priority 2005, dated 2010).
Where two headings read alike, the source gives them in different places.

What was measured:
[1] = tested on: class I MHC antigens in human saphenous vein; experiment: Immunohistochemical stain for class I MHC antigens after decellularization (Example 1)
Description: The effectiveness of cell and cellular debris removal was evaluated using two detergent and two enzyme solutions at various concentrations (Table 2). […] One treatment group combined Triton-X 100 with sodium deoxycholate. Trypsin alone at 0.05% (w/v) or 1.0% (w/v) and in combination with 0.02% (w/v) EDTA were the enzyme solutions used in the decellularization process.
(§1) Samples were then rinsed in PBS at room temperature for 10 minutes while continuously shaking. Following the rinse step, the samples were cut in half and either prepared for histology or immunohistochemistry.
Immunohistochemistry was used to determine the level of antigens remaining in the tissue after treatment. […] Samples were prepared in frozen blocks and sectioned with a cryostat. The sections were thawed and then rinsed for blocking and antibody staining. Sections were incubated for 30 minutes in primary antibody (mouse anti-HLA-ABC class I MHC) solution and then for anther 30 minutes in diluted biotinylated secondary antibody (Vector ABC Elite kit) solution. An enzyme substrate, NovaRed (Vector), was used to stain the antibodies red. The counter stain was hematoxylin providing a blue contrast.
A Zeiss Axiophot 2 microscope with a motorized Ludl scanning stage was used with tile field mapping at 5× to capture the entire image in one frame. Particle analysis was performed in Image J to determine the ratio of antigen staining (red) to the total tissue sample.
A blue and green filter was applied to only allow red to pass. Obvious areas of antigen staining were removed due to this variation in red hue. […] All samples were compared to their negatives for a percentage of red staining.
This procedure was applied to all images. […] The treatment groups are labeled according to the detergent or enzyme used followed by the processing conditions. For the Trypsin and Trypsin+EDTA groups, the concentrations ranged from 0.05% (L) to 1.0% (H), the processing temperatures were 37° C. (L), 48° C. (M) and 55° C. (H), and the processing times were 6 hrs (L), 17 hrs (M) and 24 hrs (H).

[2] = tested on: human greater saphenous vein; conditions: 0.075% SDS; cited from earlier work
[3] = tested on: enteric bacteria (E. coli, Enterococcus faecalis or Salmonella enteritidis); conditions: peroxide doses of 0.3 to 15%, 10 min; cited from earlier work
[4] = tested on: Bacillus stearothermophilus; experiment: Growth inhibition by residual germicide on TSA and blood agar plates; format: cell-based
Description: (§2) In order to determine the reduction in spores after processing with cleaning agents, an effective and consistent method was developed. […] It was determined that residual hydrogen peroxide inhibited the growth at concentrations of 0.6% or higher for TSA plates and 6% or higher for blood plates (FIG. 12). It is believed that the catalase contained in the blood agar plates inactivated the hydrogen peroxide. […] Even though the blood agar plates allowed for dilutions as low as 1:10, the titre used was too low to detect more than a 3 log reduction in the process limiting the data collection for the survivor curves.

B. subtilis = conditions: hydrogen peroxide alone, 25° C.; cited from earlier work
B. stearothermophilus [5] = conditions: 26.5% hydrogen peroxide, 25° C.; cited from earlier work
B. stearothermophilus [6] = conditions: 6% in DI water, PBS (pH 6) or PBS (pH 7.2), 45° C., sonication
Description: In a separate study, 6% hydrogen peroxide was prepared in either DI water, PBS (pH 6) or PBS (pH 7.2). It was then used at 45° C. to treat B. stearothermophilus while under sonication.

[7] = tested on: Bacillus atrophaeus spores; conditions: 7.5% hydrogen peroxide, room temperature, 6 hour incubation; cited from earlier work
[8] = tested on: B. stearothermophilus spores
Description: Before enumerating the population remaining on tissue following chemical processing, the amount recoverable from the tissue must be determined. The recovery process developed involves the use of sonication, mechanical shaking and agitation on a vortex. Veins were cut into 30 mm segments and clamped at one end. […] The samples were then cut from the clamps and split open over a centrifuge tube containing 39.9 ml of Letheen broth to expose the lumen to the recovery process. A new pair of scissors or a new scalpel blade were used for each vein and the segments were cut over the broth to catch anything that may not have adhered to the surface of the tissue.
The tubes were sonicated at room temperature for ten minutes to break the bacteria from the surfaces. The tubes were then placed on a shaker where they were for another 10 min. The Letheen broth containing the tissue sample was then vortexed for 30 s and diluted in a series of 1:10 dilutions with each dilution plated on blood agar plates. The plates were incubated overnight at 60° C.
The procedure for spike recovery was used to collect data for the reduction curves. Vein segments were inoculated and then treated in one of the following conditions. Hydrogen peroxide (6%) was analyzed at 40° C. and 50° C. while peracetic acid (0.1%) was only tested at 40° C. At each time point, three samples were spiked and treated with one control for recovery efficiency.
(§3) Typically, a survivor curve is constructed with the initial population at time zero and the resultant populations at various time points. Since not all data points could be completed in the same day, some reduction curves were constructed to compare log reduction in the controls for each experiment over time. This normalized the data to its own experimental episode.
A control was used at each experimental episode to provide a correction factor for the treated samples. The recovered population divided by the correction factor provides the surviving population after treatment.

collagen = experiment: Collagen denaturation, quantitative enzyme digestion assay (matrix integrity)
Description: One of the major structural components of the extracellular matrix that gives veins their strength is collagen. Damage to collagen can result in mechanical failures such as increased compliance or aneurism formation. It can also result in a cellular response due the exposure of the triple helix when stability is compromised. The amount of collagen denaturation was assessed to evaluate processing conditions with a quantitative enzyme digestion assay. […] Digested and undigested fractions are separated and hydrolyzed with concentrated hydrochloric acid (HCl) to release free amino acids from each fraction. Following neutralization of the acid in 1 N NaOH, levels of hydroxyproline (an amino acid present in high concentrations in collagen) are assessed in each fraction by a calorimetric method at a wavelength of 550 nm (Chloramine T binding, and reduction of the substrate DAB to a colored end product). The level of denatured collagen in a given sample is then expressed as a percent of the trypsin soluble fraction to the sum of both trypsin soluble and trypsin insoluble fractions.
Achieving the appropriate log reduction should not come at the expense of the integrity of the extracellular matrix. […] The effect of hydrogen peroxide at 6% at 40° C. and 50° C. on collagen was compared to PAA at 0.1% at the same specified temperatures.
Digested and undigested fractions are separated and hydrolyzed with concentrated hydrochloric acid (HCl) to release free amino acids from each fraction. Following neutralization of the acid in 1 N NaOH, levels of hydroxyproline (an amino acid present in high concentrations only in collagen) are assessed in each fraction by a calorimetric method (Chloramine T binding, and reduction of the substrate DAB to a colored end product). The level of denatured collagen in a given sample is then expressed as a percent of the trypsin soluble fraction to the sum of both trypsin soluble and trypsin insoluble fractions.

[9] = tested on: B. stearothermophilus spores; experiment: Suspension sterilization: survivor/reduction curves for spores in germicide; format: cell-based, Bacillus stearothermophilus
Excerpt: The effectiveness of a sterilant is defined in terms of decimal reduction time (D-value). This is the exposure time (t) used under certain conditions to cause one log reduction (n) (90%) of the initial population. A suspension is expected to follow a predictable death rate regarding a plot of the amount of survivors over time. The negative reciprocal of the slope of regression lines of survivor curves gives the D-value where t=D×n n=[…]
as §2
To ensure consistency, each vial was vortexed before each replicate and all of the material was removed from the pipette tip onto the plate. Disposable plate spreaders were used to prevent cross contamination. The moisture needed to be maintained at a certain level because the plates would dry out at 60° C., but if there was too much moisture the bacteria would streak across the plate and prevent an accurate count. The first procedure implemented was propping the plates open in a laminar flow hood to allow excessive moisture to dry. The second method employed was placing the plates in a beaker with a porous covering to trap some moisture while allowing the excess to evaporate.
Hydrogen peroxide at a concentration of 6% was used at temperatures of 40, 45 and 50° C. to calculate a curve for modeling the temperature effects on spore kill. […] Samples were removed and immediately placed in an ice bath at 10, 15, 20 and 30 min. The vial was well-mixed on a vortex, and then diluted 1:10 in series before plating.
Peracetic acid at concentrations of 0.1%, 0.05% and 0.005% were used only at 40° C. to calculate a curve for modeling the concentration effects on spore kill. […] Samples were removed and immediately placed in an ice bath at various time points depending on the concentration. The vial was well-mixed on a vortex, and then diluted 1:10 in series before plating.
as §3

[10] = Bradford Assay of nonspecific proteins in collagenase digested vein samples; parameters: species or system human; conditions: 0.1% peracetic acid versus 6% hydrogen peroxide (FIGS. 29, 30)
Description: In a further study, the efficiency of peracetic acid (PAA) versus hydrogen peroxide (HP) was investigated. Samples were treated in either 0.1% PAA or 6% HP and were exposed for varying lengths of time at varying temperatures.
Without wishing to be bound by theory, it is believed that the peracetic acid opens the collagen matrix up to allow for greater penetration of the tissue. It also believed to break down the proteins better than hydrogen peroxide. […] The Bradford Assay (Bradford, 1976) is used to quantify nonspecific proteins in collagenase digested vein samples. The Bradford Assay is a general protein assay, is based on an absorbance shift in a dye (Coomassie brilliant blue G-250 dye (CBBG)). CBBG has an absorbance shift when bound to arginine and hydrophobic amino acid residues (e.g., tryptophan, tyrosine, histidine and phenylalanine) present in protein. The reduction in antigenicity is correlated in the immunohistochemical staining (e.g., groups L and K from Example 5) and the histopathology scores (e.g., prototype recipe from Example 4).

human saphenous vein = experiment: Histology (H&E) for cellularity and matrix (Example 1); conditions: 0.05% Trypsin, 37° C., 6 or 24 hours (FIGS. 7, 8)
Description: as §1, with “Samples of human saphenous veins 10 mm in length were placed in each of the test solution at 37° C. or 48° C. for both 6 and 24 hours while continuously shaking. Samples” for “Samples”
Samples were placed in 10% buffered formalin immediately following the rinse step and remained there for at least 24 hours before further preparation. Then, the samples were embedded in paraffin and stained with hematoxylin and eosin (H&E) to determine cellularity.
The results of the immunohistochemical stain were compared to histology slides stained for cellularity (FIGS. 7 to 10). […] The extracellular matrix is preserved in each segment except with 1.0% Cholate at 48° C.

Question: For `O=C(O)CN(CCN(CC(=O)O)CC(=O)O)CC(=O)O` [EDTA], which “effect of addition of EDTA on removal of cells” value ([1]; added to Triton at 0.25%, 6 hours, 37° C.) is on record?
Answer: enhance the removal of cells

Question: What about the “effect of addition of EDTA on removal of antigens” value ([1]; added to Trypsin) of the same molecule?
Answer: inconsistent effect

Question: Which transmural cell removal [2] does the source give for `CCCCCCCCCCCCOS(=O)(=O)[O-].[Na+]` [SDS, sodium dodecyl sulfate] here?
Answer: > 94%

Question: With `OO` [hydrogen peroxide] as the molecule, how does the log microbial reductions [3] read?
Answer: below 0.2 log

Question: What about the “residual concentration that inhibited the growth” value ([4]; TSA plates) of the same molecule?
Answer: ≥ 0.6%

Question: What about the “residual concentration that inhibited the growth” value ([4]; blood plates) of the same molecule?
Answer: ≥ 6%

Question: What about the D-value (B. subtilis) of the same molecule?
Answer: 55.2 min

Question: And the D-value (B. stearothermophilus [5])?
Answer: 4.7 min

Question: And the “effect of buffer/pH on sterilizing” value (B. stearothermophilus [6])?
Answer: a buffered solution may be more effective

Question: What about the growth of spores [7] of the same molecule?
Answer: No growth was detected

Question: And the “time for a 6 log reduction” value ([8]; 6% hydrogen peroxide, 50° C., spiked tissue)?
Answer: less than 40 minutes

Question: What about the D-value ([8]; 6% hydrogen peroxide, 50° C., spiked tissue (FIG. 20)) of the same molecule?
Answer: 6.63

Question: And the D-value with tissue ([8]; 6% peroxide with tissue, temperature not stated)?
Answer: 5.34

Question: And the D-value ([8]; 6% peroxide, 40° C., spiked tissue (FIG. 21))?
Answer: 15.17

Question: What about the “decrease of D-value with tissue versus suspension” value ([8]; 6% peroxide, temperature not stated) of the same molecule?
Answer: approximately 4 minutes

Question: And the “ratio of degraded collagen compared to untreated controls” value (collagen)?
Answer: significantly altered matrix properties

Question: What about the D-value ([9]; 6% peroxide, 40° C., spores in suspension (FIG. 16)) of the same molecule?
Answer: 47.39

Question: What about the “time for a 6 log reduction” value ([9]; 6% peroxide, 40° C., suspension) of the same molecule?
Answer: ~5 hours

Question: What about the D-value ([9]; 6% peroxide, 45° C., spores in suspension (FIG. 15)) of the same molecule?
Answer: 23.0

Question: And the D-value ([9]; 6% peroxide, 50° C., spores in suspension (FIG. 14))?
Answer: 9.87

Question: What about the “time for a 6 log reduction” value ([9]; 6% peroxide, 50° C., suspension) of the same molecule?
Answer: less than an hour

Question: What about the “reduction of the D-value by an increase in temperature” value ([9]; 6% peroxide, from 40° C. to 50° C., suspension) of the same molecule?
Answer: approximately 80%

Question: Which results are given for `CC(=O)OO` [peracetic acid]?
Answer: efficiency in breaking down proteins [10]: more efficient than 6% hydrogen peroxide in significantly breaking down proteins; growth inhibition by residual germicide ([4]; within the processing concentrations, blood agar plates (FIG. 13)): no inhibition was observed; amount of digestible hydroxyproline (collagen; 0.1% PAA (FIGS. 31, 32)): did not increase the amount of digestible hydroxyproline; ratio of degraded collagen compared to untreated controls (collagen; 6% hydrogen peroxide, 0.1% PAA, 50° C., one hour (FIG. 22)): significantly altered matrix properties; D-value ([9]; 0.005% PAA, 40° C., spores in suspension (FIG. 19)): 6.45; D-value ([9]; 0.05% PAA, 40° C., spores in suspension (FIG. 18)): 1.90; time for a 6 log reduction ([9]; 0.05% PAA, 40° C., suspension): 11 minutes

Question: Which results are given for Trypsin?
Answer: cellularity in histology (human saphenous vein): still evidence of cells; collagen degradation compared to untreated controls (collagen): less than half of the degradation of the untreated controls; level of antigens ([1]; 1.0% Trypsin or 1.0%/0.02% Trypsin/EDTA, minimum of 48° C. and 17 hrs): significantly reduced the level of antigens

Question: For octylphenol ethoxylate [Triton], which “collagen degradation compared to untreated controls” value (collagen; Triton 1.0%, Cholate 0.25%, 48° C., 24 hours, constant agitation (FIG. 11)) is on record?
Answer: A significant degradative effect was not seen
